Measured values: the supplement of paper PMC4862054

How the values were obtained:
Test in all cases: normalised response (% of control), CellTox Green; higher = less cell death (100 = DMSO, 0 = benzethonium chloride kill control)
Conditions in all cases: incubation time: 72 h
MDA-MB-453 = tested on: MDA-MB-453
Method in brief: (§1)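 After 72 h with compound in 384-well plates, breast cancer cell lines seeded as 20 µl suspension were read for CellTox Green fluorescence at 485/520 nm. CellTiter-Glo luminescence was then read after 10 min at room temperature. Compound was present at 5 concentrations in 10-fold steps over a 10,000-fold range set per compound, and plates were normalised to 0.1 % DMSO (100) and a positive kill control (0). Values are normalised signals, each at a single concentration.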

Hs578T = tested on: Hs578T
Method in brief: as §1

DU-4475 = tested on: DU-4475
Method in brief: as §1

CAL-120 = tested on: CAL-120
Method in brief: as §1

CAL-85-1 = tested on: CAL-85-1
Method in brief: as §1

MDA-MB-231 = tested on: MDA-MB-231
Method in brief: as §1

CAL-51 = tested on: CAL-51
Method in brief: as §1

CAL-148 = tested on: CAL-148
Method in brief: as §1

HCC1143 = tested on: HCC1143
Method in brief: as §1

HDQ-P1 = tested on: HDQ-P1
Method in brief: as §1

HCC1599 = tested on: HCC1599
Method in brief: as §1

HCC1937 = tested on: HCC1937
Method in brief: as §1

MCF-10A = tested on: MCF-10A
Method in brief: as §1

BT-474 = tested on: BT-474
Method in brief: as §1

BT-549 = tested on: BT-549
Method in brief: as §1

MFM-223 = tested on: MFM-223
Method in brief: as §1

MDA-MB-436 = tested on: MDA-MB-436
Method in brief: as §1

MDA-MB-468 = tested on: MDA-MB-468
Method in brief: as §1

Nc1ncn([C@@H]2O[C@H](CO)[C@@H](O)[C@H]2O)c(=O)n1 [Azacitidine] (10000 nM)
normalised response (MDA-MB-453): 98.8%
normalised response (Hs578T): 84.9%
normalised response (DU-4475): 86.7%
normalised response (CAL-120): 96.5%
normalised response (CAL-85-1): 110%
normalised response (MDA-MB-231): 75.5%
normalised response (CAL-51): 75.7%
normalised response (CAL-148): 97.7%
normalised response (HCC1143): 87.7%
normalised response (HDQ-P1): 103%
normalised response (HCC1599): 92%
normalised response (HCC1937): 93.3%
normalised response (MCF-10A): 81.2%
normalised response (BT-474): 80%
normalised response (BT-549): 99.8%
normalised response (MFM-223): 89.7%
normalised response (MDA-MB-436): 55.6%
normalised response (MDA-MB-468): 73.4%

O=NN(CCCl)C(=O)NCCCl [Carmustine] (1000 nM)
normalised response (MDA-MB-453): 103%
normalised response (Hs578T): 106%
normalised response (DU-4475): 96.9%
normalised response (CAL-120): 95.8%
normalised response (CAL-85-1): 102%
normalised response (MDA-MB-231): 105%
normalised response (CAL-51): 115%
normalised response (CAL-148): 98%
normalised response (HCC1143): 105%
normalised response (HDQ-P1): 99%
normalised response (HCC1599): 94.9%
normalised response (HCC1937): 112%
normalised response (MCF-10A): 92.1%
normalised response (BT-474): 97.3%
normalised response (BT-549): 96.9%
normalised response (MFM-223): 66.4%
normalised response (MDA-MB-436): 99.5%
normalised response (MDA-MB-468): 86%

Cn1cnc2c(F)c(Nc3ccc(Br)cc3Cl)c(C(=O)NOCCO)cc21 [Selumetinib] (10000 nM)
normalised response (MDA-MB-453): 101%
normalised response (Hs578T): 89.5%
normalised response (DU-4475): 62.3%
normalised response (CAL-120): 87.3%
normalised response (CAL-85-1): 108%
normalised response (MDA-MB-231): 21.6%
normalised response (CAL-51): 101%
normalised response (CAL-148): 96%
normalised response (HCC1143): 97%
normalised response (HDQ-P1): 75%
normalised response (HCC1599): 108%
normalised response (HCC1937): 98.3%
normalised response (MCF-10A): 74.4%
normalised response (BT-474): 99.4%
normalised response (BT-549): 99.7%
normalised response (MFM-223): 100%
normalised response (MDA-MB-436): 101%
normalised response (MDA-MB-468): -53.9%

COc1cc2c(cc1O)CC[C@@H]1[C@@H]2CC[C@]2(C)[C@@H](O)CC[C@@H]12 [2-methoxyestradiol] (10000 nM)
normalised response (MDA-MB-453): 94.9%
normalised response (Hs578T): -39.2%
normalised response (DU-4475): 97.4%
normalised response (CAL-120): 78.8%
normalised response (CAL-85-1): 51.6%
normalised response (MDA-MB-231): -158%
normalised response (CAL-51): 8.99%
normalised response (CAL-148): 78.8%
normalised response (HCC1143): 106%
normalised response (HDQ-P1): 94.4%
normalised response (HCC1599): 89%
normalised response (HCC1937): 90%
normalised response (MCF-10A): 48.3%
normalised response (BT-474): 70.9%
normalised response (BT-549): 85.8%
normalised response (MFM-223): 52.5%
normalised response (MDA-MB-436): 81.1%
normalised response (MDA-MB-468): 77.4%

Cn1cc(C2=Nc3cc(NC(=O)C(N)C4CCCCC4)cc4c3C2=CNNC4=O)cn1 (centres undefined) (1000 nM)
normalised response (MDA-MB-453): 91.8%
normalised response (Hs578T): -123%
normalised response (DU-4475): 95.2%
normalised response (CAL-120): 80.1%
normalised response (CAL-85-1): 45.8%
normalised response (MDA-MB-231): 54.1%
normalised response (CAL-51): 56%
normalised response (CAL-148): 86.4%
normalised response (HCC1143): 4.8%
normalised response (HDQ-P1): 97.4%
normalised response (HCC1599): 73.3%
normalised response (HCC1937): 113%
normalised response (MCF-10A): -64.4%
normalised response (BT-474): 92.3%
normalised response (BT-549): 95.4%
normalised response (MFM-223): 87.6%
normalised response (MDA-MB-436): 85%
normalised response (MDA-MB-468): 126%

Cn1cc(C2=Nc3cc(NC(=O)C(N)C4CCCCC4)cc4c3C2=CNNC4=O)cn1 (centres undefined) (10000 nM)
normalised response (MDA-MB-453): 41.1%
normalised response (Hs578T): 84.6%
normalised response (DU-4475): 83.1%
normalised response (CAL-120): 89.9%
normalised response (CAL-85-1): 59.8%
normalised response (MDA-MB-231): 54.2%
normalised response (CAL-51): -9.5%
normalised response (CAL-148): 58.5%
normalised response (HCC1143): 115%
normalised response (HDQ-P1): -67.6%
normalised response (HCC1599): 82.4%
normalised response (HCC1937): 95.9%
normalised response (MCF-10A): 31.3%
normalised response (BT-474): 97.1%
normalised response (BT-549): 39.3%
normalised response (MFM-223): 10.9%
normalised response (MDA-MB-436): 92.7%
normalised response (MDA-MB-468): 13.5%

COc1cc2c(cc1O)CC[C@@H]1[C@@H]2CC[C@]2(C)[C@@H](O)CC[C@@H]12 [2-methoxyestradiol] (1000 nM)
normalised response (MDA-MB-453): 108%
normalised response (Hs578T): 84.6%
normalised response (DU-4475): 96.6%
normalised response (CAL-120): 91.8%
normalised response (CAL-85-1): 83.5%
normalised response (MDA-MB-231): 34.1%
normalised response (CAL-51): 98.3%
normalised response (CAL-148): 85.8%
normalised response (HCC1143): 99.8%
normalised response (HDQ-P1): 108%
normalised response (HCC1599): 93.5%
normalised response (HCC1937): 111%
normalised response (MCF-10A): 98.5%
normalised response (BT-474): 77.8%
normalised response (BT-549): 96.5%
normalised response (MFM-223): 64.7%
normalised response (MDA-MB-436): 85.5%
normalised response (MDA-MB-468): 92.5%

CC(C)(C)c1cnc(CSc2cnc(NC(=O)C3CCNCC3)s2)o1 [SNS-032] (10000 nM)
normalised response (MDA-MB-453): 99.2%
normalised response (Hs578T): 41.9%
normalised response (DU-4475): 91.7%
normalised response (CAL-120): 94.1%
normalised response (CAL-85-1): 42.8%
normalised response (MDA-MB-231): -26.5%
normalised response (CAL-51): 81.1%
normalised response (CAL-148): 91.3%
normalised response (HCC1143): 76.9%
normalised response (HDQ-P1): 68.4%
normalised response (HCC1599): 77.1%
normalised response (HCC1937): 76.1%
normalised response (MCF-10A): 26.3%
normalised response (BT-474): 93%
normalised response (BT-549): 76%
normalised response (MFM-223): 76.7%
normalised response (MDA-MB-436): 94.2%
normalised response (MDA-MB-468): 44.3%
